Like-named read-outs stand apart in the source and are kept apart here.
Legend:
[1] = Pharmacokinetic/toxicokinetic evaluation in rats; type: in vivo; settings: for Cmax / AUC(0-t) / half-life / AUC(0-inf): rat, plasma
Experimental: The study was conducted using three (3) test and one (1) control article groups. The high and low test article groups and the control group consisted of 28 animals each and were used to assess tolerance. The medium test article group consisted of 64 animals of which 28 animals were used to assess tolerance and 36 animals were used to determine the level of test article in the blood at various time points after the first and fifth doses in the PK/TK portion of the study. The control article was the solution (5% dextrose in water; D5W) used to dilute the test article prior to administration and was administered at the same volume as the high dose test article group. […] Test and control articles were administered by intravenous (IV) injection into a tail vein over one minute on five consecutive days.
Blood samples for test article blood level analysis were taken as follows. Approximately 0.3-0.5 mL of blood was taken from three male and three female rats under anesthesia at each sample time point of pre-dose and at the end of injection (Time 0) and at approximately 0.08, 0.25, 0.5, 1, 2, 4, 8, 12, and 24 hours from the end of the injection after the first and fifth doses. Animals used to assess tolerance were terminated one day (for the primary group) or 15 days (for the recovery group) after the last dose. At termination of the tolerance test animals, blood for hematology and clinical chemistry analysis was drawn prior to euthanasia and following euthanasia. A necropsy was performed to include collection of major organs for microscopic evaluation. The animals used for the pk/tk blood sampling only to determine the level of test article were euthanized after the final blood sample was collected without any further sampling or observations.
PK/TK: Blood samples for test article blood level analysis were taken. Utilizing 18 male and 18 female medium dose animals, approximately 0.3-0.5 mL of blood was taken from three male and three female rats under anesthesia at each sampling time point of pre-dose and at the end of injection (Time 0) and at approximately 0.08, 0.25, 0.5, 1, 2, 4, 8, 12, and 24 hours from the end of the injection after the first and fifth dose. Blood sampling was via retro-orbital bleeding or cardiac puncture bleeding for an animal's terminal sample. Plasma (lithium heparin anticoagulant) samples were prepared and analyzed. General procedures for chemical pathology, necropsy, and histopathology, and statistical methods, for example as described in Example 65, were followed.

[2] = test system: native quadruplex structures that regulate different oncogenes; test: Quadrome footprints; type: binding; settings: FIG. 4
Source text: Quadrome Footprints. Compounds may be evaluated for their ability to bind to other native quadruplex structures of biological relevance, including quadruplex control elements that regulate a range of different oncogenes.

[3] = test system: p53 (total); test: p53 (total) ELISA in HCT-116 cells; type: cell-based; settings: 24 hr, 1-5 uM
Experimental: The protocol for this assay is described as follows. On Day 1, cells were seeded at 2×10^6 cells/10 cm dish/10 mL medium. On day two, cells were treated as follows: control=0.05% DMSO (5 μl DMSO stock/10 ml medium); 1 μM CX3543 (1 μl Stock (10 mM)/10 ml medium); 2 μM CX3543 (2 μl Stock (10 mM)/10 ml medium); 3 μM CX3543 (3 μl Stock (10 mM)/10 ml medium); 4 μM CX3543 (4 μl Stock (10 mM)/10 ml medium) and 5 μM CX3543 (5 μl Stock (10 mM)/10 ml medium).
On Day 3, cells were harvested and attached and floating cells were collected. Cells were washed twice with PBS, counted and collected at 4×10^6 cells/sample. The cell pellet was frozen at −80° C. until further use. […]
Test Procedure. […] After washing, the plate is inverted and tapped dry on absorbance tissue. […]
Wash wells with 400 μl working wash buffer four times. […] After washing, the plate is inverted and tapped try on absorbance tissue. […] After washing, the plate is inverted and tapped try on absorbance tissue. […] Read the plate at A450 nm by setting chromogen blank (=100 μl TMB+100 μl Stop soln) as blank. Read absorbance within 2 hours of assay completion.

In the case of `CN1CCCC1CCNC(=O)c1cn2c3c(c(N4CCC(c5cnccn5)C4)c(F)cc3c1=O)Oc1cc3ccccc3cc1-2` (centres unmarked) [CX-3543], the “Dose 5 to Dose 1 ratio for AUC(0-24)” value ([1]; female) is reported as 1.5, the Cmax ([1]; female, iv, 7.6 mg/kg, Dose 1) is reported as 598 ng/mL and the Cmax ([1]; female, iv, 7.6 mg/kg, Dose 5) is reported as 1050 ng/mL. The AUC(0-t) ([1]; female, iv, 7.6 mg/kg, female, Dose 1, read-out: AUC(0-24)) was 784 ng·h/mL, the AUC(0-t) ([1]; female, iv, 7.6 mg/kg, female, Dose 5, read-out: AUC(0-24)) was 1200 ng·h/mL and the half-life ([1]; female, iv, 7.6 mg/kg, female, Dose 5, read-out: terminal half-life (converted)) was 288 min. It also gave a half-life ([1]; female, iv, 7.6 mg/kg, female, IV, Dose 1 (medium dose group, 7.6 mg/kg), read-out: terminal half-life (converted)) of 396 min, a half-life ([1]; female, iv, […], female, Dose 1, […] IV, read-out: T1/2 (converted)) of 396 min and a half-life ([1]; female, iv, […], female, Dose 5, […] IV once daily, read-out: T1/2 (converted)) of 288 min. The “Dose 5 to Dose 1 ratio for AUC(0-24)” value ([1]; male) was 1.3, the “Accumulation Ratio” value ([1]; male, Dose 5 to Dose 1 AUC(0-24), 7.1 mg/kg IV) was 1.3 and the Cmax ([1]; male, iv, 7.1 mg/kg, Dose 1, 7.1 mg/kg IV) was 514 ng/mL. For the same compound, the Cmax ([1]; male, iv, 7.1 mg/kg, Dose 5, 7.1 mg/kg IV once daily) was 485 ng/mL, the AUC(0-t) ([1]; male, iv, 7.1 mg/kg, male, Dose 1, 7.1 mg/kg IV, read-out: AUC(0-24)) was 779 ng·h/mL and the half-life ([1]; male, iv, 7.1 mg/kg, male, Dose 1, 7.1 mg/kg IV, read-out: T1/2 (converted)) was 408 min. It also gave an AUC(0-t) ([1]; male, iv, 7.1 mg/kg, male, Dose 5, 7.1 mg/kg IV once daily, read-out: AUC(0-24)) of 1010 ng·h/mL, a half-life ([1]; male, iv, 7.1 mg/kg, male, Dose 5, 7.1 mg/kg IV once daily, read-out: T1/2 (converted)) of 528 min and a Cmax ([1]; male, iv, 7.6 mg/kg, Dose 1) of 514 ng/mL. The Cmax ([1]; male, iv, 7.6 mg/kg, Dose 5) was 485 ng/mL, the AUC(0-t) ([1]; male, iv, 7.6 mg/kg, male, Dose 1, read-out: AUC(0-24)) was 779 ng·h/mL and the AUC(0-t) ([1]; male, iv, 7.6 mg/kg, male, Dose 5, read-out: AUC(0-24)) was 1010 ng·h/mL. The half-life ([1]; male, iv, 7.6 mg/kg, male, Dose 5, read-out: terminal half-life (converted)) was 528 min, the half-life ([1]; male, iv, 7.6 mg/kg, male, IV, Dose 1 (medium dose group, 7.6 mg/kg), read-out: terminal half-life (converted)) was 408 min and the AUC(0-inf) ([1]; female, Dose 1, 7.2 mg/kg IV) was 861 ng·h/mL. For the same compound, the AUC(0-inf) ([1]; iv, 7.6 mg/kg, female, Dose 1) was 861 ng·h/mL, the AUC(0-inf) ([1]; iv, 7.6 mg/kg, male, Dose 1) was 833 ng·h/mL and the AUC(0-inf) ([1]; male, Dose 1, 7.1 mg/kg IV) was 833 ng·h/mL. The “selectivity footprint by oncogene” value [2] was “selectively binds to those quadruplexes that are capable of adopting the chair/propeller conformation” and the “population of the protein p53 (total)” value [3] was “enhanced”.

Source: patent US7507727B2, “Substituted quinobenzoxazine analogs and methods of using thereof” (Cylene Pharmaceuticals, Inc., priority 2003, dated 2009)
